Assays:
Type in all cases: in vivo
CD1 mice [1] = assay: Oral antinociception in CD1 mice (tail flick), morphine/oxycodone alone, combined or as prodrugs; details: for oral antinociceptive activity (in words): CD1 mice
CD1 mice [2] = assay: Intracerebroventricular (icv) antinociceptive activity in CD1 mice; details: for Icv ED50 values: CD1 mice, confidence range in brackets
CD1 mice [3] = assay: 24-hour tolerance study after icv administration in CD1 mice; details: for MPE still present after 24 hours: 24 hours after icv administration
CD1 mice [4] = assay: Behavioral observations after icv administration
Protocol: These curves enabled the determination of ED50 values. […] Some behavioral observations are also reported.
This behavior was not observed 10 minutes post injection. […] The animals were active for about two hours. After 24 hours, the animals maintained about 20% MPE.

SMILES | oral antinociceptive activity (in words) (CD1 mice [1]; oral) | peak time (pt), time to maximum effect (CD1 mice [2]) [min] | Icv ED50 values (CD1 mice [2]) | MPE still present after 24 hours (CD1 mice [3]) | 24-h Tolerance Study, outcome (CD1 mice [3]; icv) | 24-h Tolerance Study, Day 1 (CD1 mice [3]; icv, Day 1) | 24-h Tolerance Study, Day 2 (CD1 mice [3]; icv, Day 2) | also measured
COc1ccc2c3c1O[C@H]1C(=NOC(=O)O[C@H]4C=CC5C6Cc7ccc(O)c8c7[C@@]5(CCN6C)[C@H]4O8)CC[C@@]4(O)C(C2)N(C)CC[C@]314 (stereo partly shown) [MLN II-45] | the same activity as when oxycodone and morphine are administered together in a 1:1 ratio | – | – | – | – | – | – | –
COc1ccc2c3c1O[C@H]1/C(=N/OCC(=O)O[C@H]4C=CC5C6Cc7ccc(O)c8c7[C@@]5(CCN6C)[C@H]4O8)CC[C@@]4(O)C(C2)N(C)CC[C@]314 (stereo partly shown) [MLN II-31] | weak antinociceptive activity | – | – | – | – | – | – | maximum antinociception (CD1 mice [1]; 10 mg/kg, 4 hours after oral administration): 25%; antinociceptive activity (CD1 mice [1]; oral, measured from 15 min to 24 hours): 7-20 % of MPE
CN1CC[C@]23c4c5ccc(O)c4O[C@H]2[C@@H](NC(=O)COCCOCCn2cc(COCC(=O)N[C@H]4CC[C@@]6(O)C7Cc8ccc(O)c9c8[C@@]6(CCN7C)[C@H]4O9)nn2)CC[C@@]3(O)C1C5 [MLN II-83] | – | 20 | 0.190 nmol/mouse (0.065-0.558) | 20 ± 10 % MPE | seems to induce some tolerance | 67.95 ± 13.62 | 48.35 ± 15.68 | –
CN1CC[C@]23c4c5ccc(O)c4O[C@H]2[C@@H](O)C=C[C@H]3[C@H]1C5 [Morphine, reference compound] | – | 10 | 2.68 nmol/mouse | – | – | – | – | peak time [pt] (CD1 mice [2]): 10 ′
CN1CC[C@]23c4c5ccc(O)c4O[C@H]2[C@@H](NC(=O)COCCOCCOCc2cn(CCOCCOCC(=O)N[C@H]4CC[C@@]6(O)C7Cc8ccc(O)c9c8[C@@]6(CCN7C)[C@H]4O9)nn2)CC[C@@]3(O)C1C5 [MLN II-121] | – | 10 | 0.272 nmol/mouse (0.164-0.453) | about 20 % MPE | – | – | – | behavioral observations (CD1 mice [4]; after icv administration): pacing and had straub tails; time the animals were active (CD1 mice [4]; after icv administration): about two; MPE still present after 24 hours (CD1 mice [3]; listed as MLN II- 121): 23.06 ± 4.30 % MPE; 48 hour tolerance test, outcome (CD1 mice [3]; icv, 48 hour test): No tolerance; 48 hour tolerance test, Day 1 (CD1 mice [3]; icv, 48 hour test, Day 1): 90.00 ± 10.69; 48 hour tolerance test, Day 2 (CD1 mice [3]; icv, 48 hour test, Day 2): 80.41 ± 12.06
CN1CC[C@]23c4c5ccc(O)c4O[C@H]2[C@@H](NC(=O)COCCOCc2cn(CCOCCOCC(=O)N[C@@H]4CC[C@@]6(O)C7Cc8ccc(O)c9c8[C@@]6(CCN7C)[C@H]4O9)nn2)CC[C@@]3(O)C1C5 [MLN II-120] | – | 10 | 0.571 nmol/mouse (0.423-0.770) | – | No tolerance | 95.65 ± 4.65 | 91.38 ± 13.08 | animals showing barrel rolling and out stretched limbs (CD1 mice [4]; with 2 minutes of icv injection, not observed 10 minutes post injection): about 50%
